Data published in patent US7598245B2 (Vertex Pharmaceuticals Incorporated, priority 2003, dated 2009).
pKi: −log10 of the molar value.

Target: T1, PDK-1 (Homo sapiens, UniProt O15530)
T1 sequence (O15530 1-556): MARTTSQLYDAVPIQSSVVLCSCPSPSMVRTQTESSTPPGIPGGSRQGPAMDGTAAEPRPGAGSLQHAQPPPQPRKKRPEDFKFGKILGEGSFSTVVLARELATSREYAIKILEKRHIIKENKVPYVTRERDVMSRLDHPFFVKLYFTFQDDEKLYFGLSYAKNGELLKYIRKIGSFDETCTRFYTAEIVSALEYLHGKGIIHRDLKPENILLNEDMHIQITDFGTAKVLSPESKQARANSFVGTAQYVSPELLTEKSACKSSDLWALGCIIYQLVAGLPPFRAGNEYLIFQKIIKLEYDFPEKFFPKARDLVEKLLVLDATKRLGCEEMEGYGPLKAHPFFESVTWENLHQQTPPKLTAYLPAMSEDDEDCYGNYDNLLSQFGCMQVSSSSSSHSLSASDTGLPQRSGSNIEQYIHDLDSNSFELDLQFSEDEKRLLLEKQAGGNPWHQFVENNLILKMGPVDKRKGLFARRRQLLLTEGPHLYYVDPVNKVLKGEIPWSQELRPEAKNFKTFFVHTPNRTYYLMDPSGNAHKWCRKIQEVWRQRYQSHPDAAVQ
Assay: PDK-1 inhibition, radioactive-phosphate incorporation assay
Format: biochemical
Conditions: 40 μM ATP
Protocol: Compounds were screened for their ability to inhibit PDK-1 using a radioactive-phosphate incorporation assay (Pitt and Lee, J. Biomol. Screen., (1996) 1, 47). Assays were carried out in a mixture of 100 mM HEPES (pH 7.5), 10 mM MgCl2, 25 mM NaCl, 2 mM DTT. Final substrate concentrations in the assay were 40 μM ATP (Sigma Chemicals) and 65 μM peptide (PDKtide, Upstate, Lake Placid, N.Y.). Assays were carried out at 30° C. and 25 nM PDK-1 in the presence of ˜27.5 nCi/μL of [γ-^32P]ATP (Amersham Pharmacia Biotech, Amersham, UK). An assay stock buffer solution was prepared containing all of the reagents listed above, with the exception of ATP, and the test compound of interest. 15 μl of the stock solution was placed in a 96 well plate followed by addition of 1 μl of 0.5 mM DMSO stock containing the test compound (final compound concentration 25 μM, final DMSO concentration […]). The plate was preincubated for about 10 minutes at 30° C. and the reaction initiated by addition of 4 μl ATP (final concentration 40 μM).
The reaction was stopped after 10 minutes by the addition of 100 μL 100 mM phosphoric acid, 0.01% Tween-20. A phosphocellulose 96 well plate (Millipore, Cat no. MAPHNOB50) was pretreated with 100 μL 100 mM phosphoric acid, 0.01% Tween-20 prior to the addition of the reaction mixture (100 μL). The spots were left to soak for at least 5 minutes, prior to wash steps (4×200 μL 100 mM phosphoric acid, 0.01% Tween-20). After drying, 20 μL Optiphase ‘SuperMix’ liquid scintillation cocktail (Perkin Elmer) was added to the well prior to scintillation counting (1450 Microbeta Liquid Scintillation Counter, Wallac).

Compound	pKi
COc1cc(Nc2ncn(-c3ccccc3)n2)cc(OC)c1OC [Compound I-42]	5.00 to 6.00
OC[C@H]1CCCN(c2cc(-n3cnc(Nc4ccccc4)n3)ccn2)C1 [Compound I-65]	5.00 to 6.00
CC(=O)N1[C@H](C)CN(c2cc(-n3cnc(Nc4ccccc4)n3)ccn2)C[C@@H]1C [Compound I-74]	> 6.00
c1ccc(-n2cnc(Nc3ccc(N4CCOCC4)nc3)n2)cc1 [Compound I-134]	5.00 to 6.00
